# Biological target: SARS-CoV-2 Papain-like (PLpro) protease (Severe acute respiratory syndrome coronavirus 2, UniProt P0DTD1)
# Experiment: SARS-CoV-2 Papain-like (PLpro) protease biochemical enzyme inhibition assay (ubiquitin-fluorophore substrate, Ub-R110)
# Details: Ub-R110 substrate; run in duplicate; read-out: PLpro IC50
row,SMILES,IC50
1,Cn1cc2cc(C3(NC(=O)c4ccccc4CNC(=O)C(=O)NCC#Cc4ccc(Cl)cc4F)CC3)ccc2n1 [Example 148],< 100 nM
2,C[C@@H](C#Cc1ncco1)NC(=O)C(=O)NCc1ccccc1C(=O)NC1(c2cc(F)cc(-c3cnn(C4CC4)c3)c2)CC1 [Example 143],1000 to 10000 nM
3,N#CCNC(=O)C(=O)NCc1ccccc1C(=O)NC1(c2cc(Oc3cccc(C(F)(F)F)c3)cc(C(F)(F)F)c2)CC1 [Example 66],> 10000 nM
4,COC(=O)/C=C/CNC(=O)C(=O)N(C)Cc1ccccc1C(=O)N[C@H](C)c1cccc2ccccc12 [Example 547],> 10000 nM
5,N#CCCOC(=O)NCc1ccccc1C(=O)NC1(c2cc(Br)cc3ccccc23)CC1 [Example 420],1000 to 10000 nM
6,CNC(=O)/C=C/CNC(=O)C(=O)NCc1ccccc1C(=O)N[C@H](C)c1cccc2ccccc12 [Example 16],1000 to 10000 nM
7,COc1cc(C2(NC(=O)c3ccccc3CNC(=O)C(=O)NCC(O)C(F)(F)F)CC2)cc2cn(C3CC3)nc12 (centres unmarked) [Example 513],> 10000 nM
8,O=C(NC/C=C/c1nccs1)C(=O)NCc1ccccc1C(=O)NC1(c2ccc3ccccc3c2)CC1 [Example 583],100 to 1000 nM
9,O=C(NC/C=C\c1nccs1)C(=O)NCc1ccccc1C(=O)NC1(c2ccc3ccccc3c2)CC1 [Example 401],1000 to 10000 nM
10,COC(=O)/C=C/CNC(=O)C(=O)Nc1ccccc1C(=O)N[C@H](C)c1cccc2ccccc12 [Example 11],> 10000 nM
11,Cn1cc2c(F)c(C3(NC(=O)c4ccccc4CNC(=O)C(=O)NCC#N)CC3)ccc2n1 [Example 332],< 100 nM
12,COCC(C)(C)NC(=O)/C=C/CNC(=O)C(=O)NCc1ccccc1C(=O)N[C@H](C)c1cccc2ccccc12 [Example 565],1000 to 10000 nM
13,N#CCNC(=O)C(=O)NCc1ccccc1C(=O)NC1(c2cccc(C(F)(F)F)c2F)CC1 [Example 376],100 to 1000 nM
14,N#C[C@H]1CCCN1C(=O)C(=O)NCc1ccccc1C(=O)NC1(c2cccc3ccccc23)CC1 [Example 118],> 10000 nM
15,C[C@@H](NC(=O)c1ccccc1CNC(=O)C(=O)NCCC(=O)C(F)(F)F)c1cccc2ccccc12 [Example 9],1000 to 10000 nM
16,O=C(NCC#Cc1ccc2c(c1)CNC2=O)C(=O)NCc1ccccc1C(=O)NC1(c2ccc3ccccc3c2)CC1 [Example 410],100 to 1000 nM
17,N#CCNC(=O)C(=O)NCCc1ccccc1C(=O)NC1(c2ccc3ccccc3c2)CC1 [Example 372],> 10000 nM
18,C[C@@H](C#Cc1ccc(C#N)cc1C#N)NC(=O)C(=O)NCc1ccccc1C(=O)NC1(c2ccc3nn(C)cc3c2)CC1 [Example 110],1000 to 10000 nM
19,NC(=O)N1CC[C@H](CNC(=O)C(=O)NCc2ccccc2C(=O)NC2(c3cccc4ccccc34)CC2)C1 [Example 503],1000 to 10000 nM
20,COC(=O)/C=C/CNC(=O)C(=O)NCCc1ccccc1C(=O)N[C@H](C)c1cccc2ccccc12 [Example 37],100 to 1000 nM
21,Cn1ccc(C#CCNC(=O)C(=O)NCc2ccccc2C(=O)NC2(c3ccc4ccccc4c3)CC2)n1 [Example 397],100 to 1000 nM
22,C#CCNC(=O)C(=O)NCc1ccccc1C(=O)NC1(c2cc(Oc3ccccc3)cc(C(F)(F)F)c2)CC1 [Example 67],> 10000 nM
23,N#C[C@H]1CCN1C(=O)C(=O)NCc1ccccc1C(=O)NC1(c2cccc3ccccc23)CC1 [Example 120],> 10000 nM
24,O=C(NCc1ccccc1C(=O)NC1(c2ccc(F)c3ccccc23)CC1)C(=O)N[C@@H]1CNC1=O [Example 123],> 10000 nM

row,SMILES,IC50
1,CC(C)[C@@H](C#Cc1ccccn1)NC(=O)C(=O)NCc1ccccc1C(=O)NC1(c2ccc3ccccc3c2)CC1 [Example 207],> 10000 nM
2,Cn1cc2ccc(C3(NC(=O)c4ccccc4CNC(=O)C(=O)NCC#N)CC3)cc2n1 [Example 340],100 to 1000 nM
3,N#C[C@@H]1CCN1C(=O)C(=O)NCc1ccccc1C(=O)NC1(c2cccc3ccccc23)CC1 [Example 119],1000 to 10000 nM
4,COC(=O)/C=C/CN(C)C(=O)C(=O)NCc1ccccc1C(=O)N[C@H](C)c1cccc2ccccc12 [Example 546],1000 to 10000 nM
5,C#CCNC(=O)C(=O)NCc1ccccc1C(=O)NC1(c2cc(Oc3cccc(C(F)(F)F)c3)cc(C(F)(F)F)c2)CC1 [Example 65],> 10000 nM
6,N#C/C=C/CCNC(=O)C(=O)NCc1ccccc1C(=O)NC1(c2ccc3c4c(cccc24)CC3)CC1 [Example 437],100 to 1000 nM
7,CC(C)(O)Cn1cc(-c2cc(F)cc(C3(NC(=O)c4ccccc4CNC(=O)C(=O)NCC#N)CC3)c2)cn1 [Example 282],100 to 1000 nM
8,O=C(NCC#Cc1cccnc1)C(=O)NCc1ccccc1C(=O)NC1(c2ccc3ccccc3c2)CC1 [Example 170],1000 to 10000 nM
9,N#CCNC(=O)C(=O)NCc1ccccc1C(=O)NC1(c2c[nH]c3ncccc23)CC1 [Example 408],< 100 nM
10,COC(=O)/C=C/CCNC(=O)C(=O)Nc1ccccc1C(=O)N[C@H](C)c1cccc2ccccc12 [Example 10],> 10000 nM
11,O=C(NC/C=C/c1ccccn1)C(=O)NCc1ccccc1C(=O)NC1(c2ccc3ccccc3c2)CC1 [Example 578],100 to 1000 nM
12,C[C@@H](C#Cc1ccc(Cl)cc1C#N)NC(=O)C(=O)NCc1ccccc1C(=O)NC1(c2ccc3nn(C)cc3c2)CC1 [Example 113],< 100 nM
13,COC(=O)/C=C/C1(NC(=O)C(=O)NCc2ccccc2C(=O)N[C@H](C)c2cccc3ccccc23)CC1 [Example 36],> 10000 nM
14,N#CCNC(=O)C(=O)NCc1ccccc1C(=O)NC1(c2ccnc3ccccc23)CC1 [Example 407],< 100 nM
15,O=C(NCC#Cc1ccc(F)cc1)C(=O)NCc1ccccc1C(=O)NC1(c2ccc3ccccc3c2)CC1 [Example 76],> 10000 nM
16,O=C(NCC#Cc1cc(F)cc(F)c1)C(=O)NCc1ccccc1C(=O)NC1(c2ccc3ccccc3c2)CC1 [Example 75],> 10000 nM
17,C[C@@H](NC(=O)c1ccccc1CNC(=O)C(=O)NCCC#N)c1cccc2ccccc12 [Example 5],> 10000 nM
18,N#CCNC(=O)C(=O)NCc1ccccc1C(=O)NC1(c2ccnc3c2ccn3C2CC2)CC1 [Example 406],< 100 nM
19,N#CCNC(=O)C(=O)NCc1ccccc1C(=O)NC1(c2cccc(Cl)c2Cl)CC1 [Example 378],100 to 1000 nM
20,C#CCNC(=O)C(=O)NCc1ccccc1C(=O)NC1(c2cc(-c3cn(-c4ccc(F)cc4F)nn3)cc(C(F)(F)F)c2)CC1 [Example 57],1000 to 10000 nM
21,C[C@@H](NC(=O)c1ccccc1CNC(=O)C(=O)NC/C=C/C(=O)N1CC[C@H](C#N)C1)c1cccc2ccccc12 [Example 550],> 10000 nM
22,NC(=O)N1CC[C@H]1CNC(=O)C(=O)NCc1ccccc1C(=O)NC1(c2cccc3ccccc23)CC1 [Example 501],1000 to 10000 nM
23,C#C[C@H](C)NC(=O)C(=O)NCc1ccccc1C(=O)NC1(c2ccc3ccccc3c2)CC1 [Example 164],1000 to 10000 nM
24,COC(=O)/C=C/CNC(=O)C(=O)NCc1ncoc1C(=O)N[C@H](C)c1cccc2ccccc12 [Example 364],> 10000 nM

row,SMILES,IC50
1,N#CN1CC[C@@H]1CNC(=O)C(=O)NCc1ccccc1C(=O)NC1(c2cccc3ccccc23)CC1 [Example 498],100 to 1000 nM
2,N#Cc1ccc(C#CCNC(=O)C(=O)NCc2ccccc2C(=O)NC2(c3ccc4ccccc4c3)CC2)s1 [Example 92],1000 to 10000 nM
3,O=C(C#CCNC(=O)C(=O)NCc1ccccc1C(=O)NC1(c2cc(-c3cnn(C4CC4)c3)cc(C(F)(F)F)c2)CC1)NC1CC1 [Example 534],100 to 1000 nM
4,CN1CCC(n2cc(-c3cc(F)cc(C4(NC(=O)c5ccccc5CNC(=O)C(=O)NCC#Cc5cnc(F)nc5)CC4)c3)cn2)CC1 [Example 256],< 100 nM
5,Cc1cnn(C)c1-c1cc(C(F)(F)F)cc(C2(NC(=O)c3ccccc3CNC(=O)C(=O)NCC#N)CC2)c1 [Example 474],100 to 1000 nM
6,NNC(=O)/C=C/CNC(=O)C(=O)NCc1ccccc1C(=O)NC1(c2cccc3ccccc23)CC1 [Example 553],100 to 1000 nM
7,O=C(NCC#Cc1ccc(F)cc1F)C(=O)NCc1ccccc1C(=O)NC1(c2ccc3ccccc3c2)CC1 [Example 80],> 10000 nM
8,N#CN1CCC[C@@H]1CNC(=O)C(=O)NCc1ccccc1C(=O)NC1(c2cccc3ccccc23)CC1 [Example 508],100 to 1000 nM
9,N#CCNC(=O)C(=O)NCc1ccccc1C(=O)NC1(c2ccc(F)c(OC(F)(F)F)c2)CC1 [Example 309],1000 to 10000 nM
10,COc1cc(C2(NC(=O)c3ccccc3CNC(=O)C(=O)NC/C=C/c3ccccn3)CC2)cc2cn(C3CC3)nc12 [Example 581],100 to 1000 nM
11,CC(NC(=O)C(=O)NCC#N)c1ccccc1C(=O)N[C@H](C)c1cccc2ccccc12 (some centres unmarked) [Example 50],> 10000 nM
12,COc1cc(C2(NC(=O)c3ccccc3CNC(=O)C(=O)NC[C@@H]3CCCN3)CC2)cc2cn(C3CC3)nc12 [Example 511],1000 to 10000 nM
13,COC(=O)/C=C/CCNC(=O)C(=O)NC(C)c1ccccc1C(=O)N[C@H](C)c1cccc2ccccc12 (some centres unmarked) [Example 51],> 10000 nM
14,Cn1ccc2c(C3(NC(=O)c4ccccc4CNC(=O)C(=O)NCC#N)CC3)cccc21 [Example 533],100 to 1000 nM
15,O=C(C#CCNC(=O)C(=O)NCc1ccccc1C(=O)NC1(c2ccc3ccccc3c2)CC1)Nc1ccccc1 [Example 521],100 to 1000 nM
16,CC(C)n1nccc1C#CCNC(=O)C(=O)NCc1ccccc1C(=O)NC1(c2cc(F)cc(-c3cnn(C4CC4)c3)c2)CC1 [Example 278],100 to 1000 nM
17,C#CCNC(=O)C(=O)NCc1ccccc1C(=O)NC1(c2cc(-c3c(C)cnn3C)cc(C(F)(F)F)c2)CC1 [Example 475],100 to 1000 nM
18,O=C(C#CCNC(=O)C(=O)NCc1ccccc1C(=O)NC1(c2cc(-c3cccs3)cc(C(F)(F)F)c2)CC1)NC1CC1 [Example 522],100 to 1000 nM
19,CC(C)(C)OC(=O)N1CCC[C@@H]1CNC(=O)C(=O)NCc1ccccc1C(=O)NC1(c2cccc3ccccc23)CC1 [Example 506],> 10000 nM
20,C#C[C@H](C)NC(=O)C(=O)NCc1ccccc1C(=O)NC1(c2cc(F)cc(-c3cnn(C4CC4)c3)c2)CC1 [Example 141],100 to 1000 nM
21,O=C(NC/C=C1\CCOC1=O)C(=O)NCc1ccccc1C(=O)NC1(c2ccc3ccccc3c2)CC1 [Example 162],100 to 1000 nM
22,C[C@@H](C#Cc1ccc(F)cc1C#N)NC(=O)C(=O)NCc1ccccc1C(=O)NC1(c2ccc3nn(C)cc3c2)CC1 [Example 101],100 to 1000 nM
23,N#CCNC(=O)C(=O)NCc1ccccc1C(=O)NC1(c2cccn3nccc23)CC1 [Example 405],100 to 1000 nM

# — patent publication US20240327334A1, “Covalent Inhibitors As Antiviral Agents” (Enanta Pharmaceuticals, Inc., priority 2022, published 2024)
